Literature values in patent US6071508A, “Preparation of formulations for electrotransport drug delivery” (Alza Corporation, priority 1997, dated 2000).
Counter-ions that a name gives are not always drawn.

Conditions: known value

pKa, pyrimidinamine functionality: > 11.0
pKa, secondary amine group: 8.3
SMILES: c1ccc2c(c1)CC[C@H](CNCCCNC1=NCCCN1)O2 [drug salt of Example 1, (-)-(R)-N-[(3,4-dihydro-2H-1-benzopyran-2-yl)methyl]-N'-(1,4,5,6-tetrahydropyrimidinyl)-1,3-propanediamine dihydrochloride]
